Reference: patent publication US10265307B2, “Thiazolecarboxamides and pyridinecarboxamide compounds useful as Pim kinase inhibitors” (Incyte Corporation, priority 2013, dated 2019)

Key:
Format in all cases: biochemical
[1] = molecular target: Pim-1 (Homo sapiens (Human), UniProt P11309); experiment: Pim-1 kinase assay; conditions: 1 mM ATP; read-out: Pim1 IC50
Protocol: Supplementation of the STOP buffer with beads and stopping the reactions were done under reduced light. Prior to the stopping reactions STOP buffer with beads was pre-incubated for 1 h in the dark at room temperature. After stopping the reactions, plates were incubated for 1 h in the dark at room temperature before reading on a PHERAstar FS plate reader (BMG Labtech) under reduced light.

[2] = molecular target: Pim-3 (Homo sapiens (Human), UniProt Q86V86); experiment: Pim-3 kinase assay; conditions: 1 mM ATP; read-out: Pim3 IC50
Protocol: Pim-1 and Pim-3 kinase assays-20 μL reactions were run in white 384 well polystyrene plates dotted with 0.8 μL compound/DMSO in the assay buffer (50 mM Tris, pH 7.5, 0.01% Tween-20, 5 mM MgCl2, 0.01% BSA, 5 mM DTT), containing 0.05 μM Biotin-labeled BAD peptide substrate (AnaSpec 62269), 1 mM ATP, and […] (Pim-1, Invitrogen PV3503) or […] (Pim-3, Millipore 14-738) enzyme for 1 h at 25° C. Reactions were stopped by addition of 10 μL STOP Buffer (150 mM Tris, pH=7.5, 150 mM NaCl, 75 mM EDTA, 0.01% Tween-20, 0.3% BSA) supplemented with Phospho-Bad (Ser112) Antibody (Cell Signaling 9291) diluted 666-fold, and Streptavidin donor beads (PerkinElmer 6760002) along with Protein-A acceptor beads (PerkinElmer 6760137) at 15 μg/mL each. Supplementation of the STOP buffer with beads and stopping the reactions were done under reduced light. Prior to the stopping reactions STOP buffer with beads was pre-incubated for 1 h in the dark at room temperature. After stopping the reactions, plates were incubated for 1 h in the dark at room temperature before reading on a PHERAstar FS plate reader (BMG Labtech) under reduced light.

[3] = molecular target: Pim-2 (Homo sapiens (Human), UniProt Q9P1W9); experiment: Pim-2 kinase assay; conditions: 1 mM ATP; read-out: Pim2 IC50
Sequence of Pim-2 (Q9P1W9 whole entry): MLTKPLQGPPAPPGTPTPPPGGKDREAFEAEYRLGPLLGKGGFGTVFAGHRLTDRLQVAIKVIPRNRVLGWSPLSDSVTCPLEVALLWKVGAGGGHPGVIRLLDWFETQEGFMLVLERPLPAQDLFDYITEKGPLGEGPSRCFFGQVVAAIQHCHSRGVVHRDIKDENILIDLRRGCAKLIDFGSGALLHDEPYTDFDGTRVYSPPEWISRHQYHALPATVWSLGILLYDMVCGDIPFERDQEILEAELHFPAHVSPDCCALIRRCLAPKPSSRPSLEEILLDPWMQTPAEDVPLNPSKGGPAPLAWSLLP
Protocol: Pim-2 kinase assay-20 μL reactions were run in white 384 well polystyrene plates dotted with 0.8 μL compound/DMSO in the assay buffer (50 mM Tris, pH 7.5, 0.01% Tween-20, 5 mM MgCl2, 0.01% BSA, 5 mM DTT), containing 0.05 μM Fluorescein-labeled CREBtide peptide substrate (Invitrogen PV3508), 1 mM ATP, and 1 nM enzyme (Invitrogen PV3649) for 2 h at 25° C. Reactions were stopped by addition of 10 μL TR-FRET Dilution Buffer (Invitrogen PV3574) with 30 mM EDTA and 1.5 nM LanthaScreen Tb-CREB pSer133 antibody (Invitrogen PV3566). After 30 min. incubation at room temperature, plates were read on a PHERAstar FS plate reader (BMG Labtech).
Although the above in vitro assays are conducted at 1 mM ATP compounds can also be evaluated for potency and in vitro activity against PIM targets utilizing Km conditions, where the concentration of ATP is set to the Km value and the assay is more sensitive to PIM inhibition activity.

Sequence of Pim-1 (P11309 whole entry): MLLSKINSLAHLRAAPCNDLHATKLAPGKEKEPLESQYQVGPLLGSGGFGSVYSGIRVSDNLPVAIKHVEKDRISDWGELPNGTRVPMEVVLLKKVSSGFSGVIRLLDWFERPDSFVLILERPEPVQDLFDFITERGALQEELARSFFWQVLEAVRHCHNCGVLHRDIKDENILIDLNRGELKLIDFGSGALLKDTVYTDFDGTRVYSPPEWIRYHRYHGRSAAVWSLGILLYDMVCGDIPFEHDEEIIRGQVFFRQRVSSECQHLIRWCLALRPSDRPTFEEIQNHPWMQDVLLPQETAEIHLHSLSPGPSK

Row | SMILES | IC50 [1] [nM] | IC50 [2] [nM] | IC50 [3] [nM]
1 | C[C@@H]1C[C@H](N)CN(c2c(NC(=O)c3ccc(F)c(-c4c(F)cc(OC5CCCOC5)cc4F)n3)cnc3c2CCC3O)C1 (single isomer, unassigned) [70 (Diastereoisomer 2)] | ≤ 100 | ≤ 100 | ≤ 100
2 | CC(C)(O)c1cc(F)c(-c2nc(C(=O)Nc3cnc4c(c3N3C[C@@H](N)C[C@@H](C(F)(F)F)C3)CCC4O)ccc2F)c(F)c1 (single isomer, unassigned) [72 (Diastereoisomer 1)] | ≤ 100 | ≤ 100 | ≤ 100
3 | CC(C)(O)c1cc(F)c(-c2nc(C(=O)Nc3cnc4c(c3N3C[C@@H](N)C[C@@H](C(F)(F)F)C3)CCC4O)ccc2F)c(F)c1 (single isomer, unassigned) [72 (Diastereoisomer 2)] | ≤ 100 | ≤ 100 | ≤ 100
4 | Nc1sc(-c2c(F)cccc2F)nc1C(=O)Nc1cnc2c(c1N1CC[C@H](O)[C@@H](N)C1)CCC2 (single isomer, unassigned) [Example 24, 5-Amino-N-{4-[3,4-trans-3-amino-4-hydroxypiperidin-1-yl]-6,7-dihydro-5H-cyclopenta[b]pyridin-3-yl}-2-(2,6-difluorophenyl)-1,3-thiazole-4-carboxamide] | ≤ 100 | ≤ 100 | > 2000
5 | Nc1sc(-c2c(F)cccc2F)nc1C(=O)Nc1cnc2c(c1N1CC[C@@H](O)[C@H](N)C1)CCC2 (single isomer, unassigned) [Example 25, 5-Amino-N-{4-[3,4-trans-3-amino-4-hydroxypiperidin-1-yl]-6,7-dihydro-5H-cyclopenta[b]pyridin-3-yl}-2-(2,6-difluorophenyl)-1,3-thiazole-4-carboxamide] | ≤ 100 | ≤ 100 | ≤ 100
6 | Nc1sc(-c2c(F)cccc2F)nc1C(=O)Nc1cnc2c(c1N1CC[C@@H](O)[C@@H](N)C1)CCC2 (single isomer, unassigned) [Example 26] | ≤ 100 | ≤ 100 | > 2000
7 | Nc1sc(-c2c(F)cccc2F)nc1C(=O)Nc1cnc2c(c1N1CC[C@H](O)[C@H](N)C1)CCC2 (single isomer, unassigned) [Example 27, 5-Amino-N-{4-[3.4-cis-3-amino-4-hydroxypiperidin-1-yl]-6,7-dihydro-5H-cyclopenta[b]pyridin-3-yl}-2-(2,6-difluorophenyl)-1,3-thiazole-4-carboxamide] | ≤ 100 | ≤ 100 | ≤ 100
8 | Nc1sc(-c2c(F)cccc2F)nc1C(=O)Nc1cnc2ccsc2c1N1CC[C@@H](O)[C@H](N)C1 (single isomer, unassigned) [Example 29, 5-Amino-N-{7-[3,4-trans-3-amino-4-hydroxypiperidin-1-yl]thieno[3,2-b]pyridin-6-yl}-2-(2,6-difluorophenyl)-1,3-thiazole-4-carboxamide] | ≤ 100 | ≤ 100 | 100 to 1000
9 | Nc1sc(-c2c(F)cccc2F)nc1C(=O)Nc1cnc2ccsc2c1N1CC[C@H](O)[C@H](N)C1 (single isomer, unassigned) [Example 30, 5-Amino-N-{7-[3.4-cis-3-amino-4-hydroxypiperidin-1-yl]thieno[3,2-b]pyridin-6-yl}-2-(2,6-difluorophenyl)-1,3-thiazole-4-carboxamide] | ≤ 100 | ≤ 100 | 100 to 1000
10 | Nc1sc(-c2c(F)cccc2F)nc1C(=O)Nc1cnc2ccccc2c1N1CCC[C@H](N)C1 [Example 1, 5-Amino-N-{4-[(3S)-3-aminopiperidin-1-yl]quinolin-3-yl}-2-(2,6-difluorophenyl)-1,3-thiazole-4-carboxamide] | ≤ 100 | ≤ 100 | 277
11 | N[C@H]1CCCN(c2c(NC(=O)c3csc(-c4c(F)cccc4F)n3)cnc3ccccc23)C1 [Example 2, N-{4-[(3S)-3-Aminopiperidin-1-yl]quinolin-3-yl}-2-(2,6-difluorophenyl)-1,3-thiazole-4-carboxamide] | > 40 | > 40 | > 2000
12 | Nc1sc(-c2c(F)cccc2F)nc1C(=O)Nc1cnc2sccc2c1N1CCC[C@H](N)C1 [Example 3, 5-Amino-N-{4-[(3S)-3-aminopiperidin-1-yl]thieno[2,3-b]pyridin-5-yl}-2-(2,6-difluorophenyl)-1,3-thiazole-4-carboxamide] | ≤ 100 | ≤ 100 | ≤ 100
13 | N[C@H]1CCCN(c2c(NC(=O)c3csc(-c4c(F)cccc4F)n3)cnc3sccc23)C1 [Example 4, N-{4-[(3S)-3-Aminopiperidin-1-yl]thieno[2,3-b]pyridin-5-yl}-2-(2,6-difluorophenyl)-1,3-thiazole-4-carboxamide] | ≤ 100 | ≤ 100 | > 2000
14 | Nc1sc(-c2c(F)cccc2F)nc1C(=O)Nc1cnc2ccsc2c1N1CCC[C@H](N)C1 [Example 5, 5-Amino-N-{7-[(3S)-3-aminopiperidin-1-yl]thieno[3,2-b]pyridin-6-yl}-2-(2,6-difluorophenyl)-1,3-thiazole-4-carboxamide] | ≤ 100 | ≤ 100 | ≤ 100
15 | N[C@H]1CCCN(c2c(NC(=O)c3csc(-c4c(F)cccc4F)n3)cnc3ccsc23)C1 [Example 6, N-{7-[(3S)-3-Aminopiperidin-1-yl]thieno[3,2-b]pyridin-6-yl}-2-(2,6-difluorophenyl)-1,3-thiazole-4-carboxamide] | ≤ 100 | ≤ 100 | > 2000
16 | Nc1sc(-c2c(F)cccc2F)nc1C(=O)Nc1cnc2[nH]ccc2c1N1CCC[C@H](N)C1 [Example 7, 5-Amino-N-{4-[(3S)-3-aminopiperidin-1-yl]-1H-pyrrolo[2,3-b]pyridin-5-yl}-2-(2,6-difluorophenyl)-1,3-thiazole-4-carboxamide] | ≤ 100 | ≤ 100 | ≤ 100
17 | N[C@H]1CCCN(c2c(NC(=O)c3csc(-c4c(F)cccc4F)n3)cnc3[nH]ccc23)C1 [Example 8, N-{4-[(3S)-3-Aminopiperidin-1-yl]-1H-pyrrolo[2,3-b]pyridin-5-yl}-2-(2,6-difluorophenyl)-1,3-thiazole-4-carboxamide] | ≤ 100 | ≤ 100 | > 2000
18 | Nc1sc(-c2c(F)cccc2F)nc1C(=O)Nc1cnc2c(c1N1CCC[C@H](N)C1)CCO2 [Example 9, 5-Amino-N-{4-[(3S)-3-aminopiperidin-1-yl]-2,3-dihydrofuro[2,3-b]pyridin-5-yl}-2-(2,6-difluorophenyl)-1,3-thiazole-4-carboxamide] | ≤ 100 | ≤ 100 | ≤ 100
19 | N[C@H]1CCCN(c2c(NC(=O)c3csc(-c4c(F)cccc4F)n3)cnc3c2CCO3)C1 [Example 10, N-{4-[(3S)-3-Aminopiperidin-1-yl]-2,3-dihydrofuro[2,3-b]pyridin-5-yl}-2-(2,6-difluorophenyl)-1,3-thiazole-4-carboxamide] | ≤ 100 | ≤ 100 | 100 to 1000
20 | N[C@H]1CCCN(c2c(NC(=O)c3ccc(F)c(-c4c(F)cccc4F)n3)cnc3c2CCO3)C1 [Example 11, N-{4-[(3S)-3-Aminopiperidin-1-yl]-2,3-dihydrofuro[2,3-b]pyridin-5-yl}-6-(2,6-difluorophenyl)-5-fluoropyridine-2-carboxamide] | ≤ 100 | ≤ 100 | 100 to 1000
21 | Nc1cc(F)c(-c2c(F)cccc2F)nc1C(=O)Nc1cnc2c(c1N1CCC[C@H](N)C1)CCO2 [Example 12, 3-Amino-N-{4-[(3S)-3-aminopiperidin-1-yl]-2,3-dihydrofuro[2,3-b]pyridin-5-yl}-6-(2,6-difluorophenyl)-5-fluoropyridine-2-carboxamide] | ≤ 100 | ≤ 100 | ≤ 100
22 | N[C@H]1CCCN(c2c(NC(=O)c3csc(-c4c(F)cccc4F)n3)cnc3c2CCC3)C1 [Example 13, N-{4-[(3S)-3-Aminopiperidin-1-yl]-6,7-dihydro-5H-cyclopenta[b]pyridin-3-yl}-2-(2,6-difluorophenyl)-1,3-thiazole-4-carboxamide] | ≤ 100 | ≤ 100 | > 2000
